Results reported in article PMC4192597, “Antimicrobials, Stress and Mutagenesis” (PLoS Pathogens, 2014).
In brackets after ≈: the same amount, converted by molar mass. Read-outs that look alike come from different tables or passages of the source. Ends that are not written are not given here.

Experiments:
[1] = tested on: E. coli MG1655; test: Luria-Delbrück fluctuation assay, mutation rate (rifampicin resistance); type: cell-based, Escherichia coli; settings: concentrations ranging from 0.5 to 4 µg/ml (Figure S1)
Protocol: We first investigated the mutation rates of E. coli using a Luria-Delbrück fluctuation test. We used the Escherichia coli strain MG1655 and the concentration of all antimicrobials was adjusted to limit bacterial growth to 50% in four hours of treatment.
The duration of treatment was set to 4 hours for all antimicrobials, and the concentrations were adjusted to obtain around 50% of inhibition of grow in comparison to the a non-treated control. Three ml of exponentially growing culture of E. coli MG1655 (∼2×10^8 cells/ml) were centrifuged at 4000 g for 10 minutes and re-suspended in the same volume of MH with different concentrations of antimicrobials at 37°C with shaking (200 rpm). After incubation, the cultures were centrifuged for 10 min at 4000 g. The pellet was re-suspended, washed twice with MH and re-suspended in 3 ml of fresh medium and incubated overnight (16 h) at 37°C with shaking. This step is necessary to resolve the filaments that some antimicrobials induce due to their toxic action and allow recovery of cells under stress. Cultures were diluted and plated to determine the number of colony forming units in MH agar plates. The number of mutants was estimated by the number of colonies growing on rifampicin (100 µg/ml). […]
We also assessed if different AMP concentrations (Fig. S1) or different inoculum sizes (10^2, 10^4, 10^6, 10^8 cfu/ml) influenced mutation rates (Fig. S2).

[2] = tested on: E. coli MG1655; test: microbe, parasite or virus in culture; type: cell-based, Escherichia coli; settings: 4 hours, 50% reduction of CFUs vs control, Mueller Hinton Broth, 37°C, five replicates, repeated twice
Protocol: The MIC50s for all antimicrobials were determined by inoculating strains grown to mid-log phase into the wells of a 96-microwell plate. Approximately 10^2 cells from overnight cultures were inoculated into tubes containing 10 ml of Mueller Hinton Broth medium, and the tubes were incubated at 37°C with strong shaking until the mid-log phase of growth (approximately 10^8 cells/ml). […] The plates were incubated at 37°C for 4 h with continuous shaking in a plate reader (Synergy 2, BioTeK). After four hours, aliquots from wells with OD^600 readings ranging from 10 to 90% values in comparison with the control, were serially diluted in sterile 0.9% NaCl, and incubated during 1 hour to allow the resolution of filaments as consequence of SOS activation, if any. Bacterial suspensions were plated in Mueller Hinton Broth agar plates to estimate the viability as colony forming units (CFUs). Five replicates per concentration were prepared and the experiments were repeated twice.

[3] = tested on: E. coli stress response genes (strain MG1655); test: Relative gene expression of stress response genes by quantitative real-time PCR; type: cell-based, Escherichia coli; settings: for Expression, cpxA (Envelope stress) / Expression, cpxR (Envelope stress) / Expression, dinB (SOS response) / Expression, lexA (SOS response) / Expression, marR (Independent multiple antibiotic resistance) / Expression, oxyR (Oxidative stress) / Expression, phoP (Envelope stress) / Expression, phoQ (Envelope stress) / Expression, recA (SOS response) / Expression, rpoE (Envelope stress) / Expression, rpoS (Sigma S response) / Expression, umuC (SOS response): normalized to arcA, mdoG, tus, Pexiganan 16, Melittin 16, Kanamycin 16, Ciprofloxacin 0.5, Lysozyme 128, Ampicillin 32 μg/ml, three biological replicates; as to Result, cpxR: key: NDE: non-differentially expressed, p-value ≥ 0,05; UP: upregulated, p-value ≤ 0,05; DOWN: downregulated, p-value ≤ 0,05; as to Result, oxyR: key: NDE: non-differentially expressed, p-value ≥ 0,05; UP: upregulated, p-value ≤ 0,05; DOWN: downregulated, p-value ≤ 0,05; as to Result, rpoE: key: NDE: non-differentially expressed, p-value ≥ 0,05; UP: upregulated, p-value ≤ 0,05; DOWN: downregulated, p-value ≤ 0,05
Protocol: Preparation of each of the six treatments and the control samples was carried out by two operators on three consecutive days, thereby comprising three biological replicates for each of the six experimental and one control groups. To obtain the starting material for the experiment, a fresh bacterial culture was grown from a glycerol stock on Mueller-Hinton (MH) agar plates at 37°C for 18–24 hours. One well-isolated colony per biological replicate was used to inoculate 2 ml of liquid MH (Sigma) in a 10 ml sterile polypropylene tube and incubated at 37°C for 16 hours with mild shaking. The overnight (ON) culture was then diluted 1∶100 in MH, subdivided into seven 10 ml aliquots and incubated in 50 ml-Falcon tubes at 37°C for 2.5 hours at 220 rpm. When the OD600 of bacterial cultures reached 0.5–0.7, respective antibiotics and AMPs were added to a concentration to match with those used in the mutagenesis experiments. These bacterial cultures were incubated for 20 minutes at 37°C with gentle shaking. Two ml of bacterial cultures from each treatment and the control were collected, immediately centrifuged at 10000 g for 2 minutes and the supernatant was removed to stop the treatment. The bacterial pellet was then resuspended in 1 ml MH, followed by an addition of 1 ml of RNAprotect Bacteria Reagent (Qiagen), 5 minutes incubation and centrifugation at 10000 g for 2 minutes at room temperature. The supernatant was discarded and the bacterial pellet was immediately frozen and stored at −80°C until RNA extraction.
Total RNA was isolated using RNeasy kit (Qiagen) according to the manufacturer's instructions and eluted in 50 µl of RNase-free water. The nucleic acid yield and purity were determined by measuring the optical density at A260/280 using a Nanodrop spectrophotometer (Thermo Scientific). RNA samples were treated with TURBO DNase (Life Technologies). Briefly, ten µg of RNA were used in a total volume of 500 µl containing 20 units of TURBO DNase, incubated for 30 minutes at 37°C, immediately followed by RNeasy (Qiagen) cleanup and elution in 30 µl of RNase-free water. Following DNase treatment, RNA integrity was assessed using Agilent RNA 6000 Nano kit and 2100 Bioanalyzer instrument (both Agilent Technologies).
High-Capacity cDNA Reverse Transcription Kit with RNase Inhibitor (Applied Biosystems) was used for cDNA synthesis. Initially, to ensure linear conversion of the transcripts, the dynamic range of reverse transcription reaction was tested by performing a standard curve with cDNA, synthesised using various input amounts of pooled RNA. Total RNA (250 ng per reaction) and random primers were used for cDNA synthesis. To obtain sufficient amount of cDNA, several batches of 20 µl RT reactions were pooled, diluted 50-fold with RNase-free water and stored in single-use aliquots at −80°C until further use. All 21 samples were tested for presence of contaminating genomic DNA by running the mdoG assay with cDNA and the respective no reverse transcription (−RT) controls.
Escherichia coli strain K-12 substrain MG1655 complete genome (accession U00096) sequence was downloaded from NCBI database (www.ncbi.nlm.nih.gov) and used for primer design. Target sequence accession number, location of the amplicon, amplicon length and primer sequences for each assay can be found in table S2. Primers were designed using Primer Express software (Applied Biosystems) and optimized for annealing temperature of 60°C. Each primer pair and amplicon were checked for secondary structure formation using Oligo Tool (Integrated DNA technologies, http://eu.idtdna.com/analyzer/Applications/OligoAnalyzer/).

[4] = tested on: E. coli MG1655; test: Minimal inhibitory concentration (MIC), micro-dilution; type: cell-based, Escherichia coli; settings: inoculum 2×10^8 cfu/ml, 24 h, liquid MH medium, 37°C
Protocol: E. coli K-12 MG1655 was used for all experiments, grown in liquid Mueller-Hilton (MH) agar or agarose, unless otherwise indicated. All experiments were carried out at 37°C.
MICs were determined according to CLSI recommendations by a micro-dilution method with the exception that the inoculum size that was adjusted to 2×10^8 cfu/ml from a regrowth of overnight cultures to be consistent with the mutagenesis experiments. […] Polypropylene non-binding plates (Th. Geyer, Germany) were used for all experiments.

[5] = tested on: E. coli stress response genes; settings: cited from earlier work
[6] = qPCR, 20 minutes exposure vs non-treated bacteria, REST 2009 randomisation test
[7] = qPCR, 20 minutes exposure vs non-treated bacteria
[8] = ampicillin 5 μg/ml, 120 min, ref Kohanski,2007

| Molecule | mutation rates over a gradient of sub-inhibitory to inhibitory concentrations [1] | Result, cpxA [3, 6] | Result, cpxR [3, 6] | Result, dinB [3, 6] | Result, lexA [3, 6] | Result, marR [3, 6] | Result, oxyR [3, 6] | Result, phoP [3, 6] | Expression, cpxA (Envelope stress) [3, 7] | Expression, cpxR (Envelope stress) [3, 7] | Expression, dinB (SOS response) [3, 7] | Expression, lexA (SOS response) [3, 7] | Expression, marR (Independent multiple antibiotic resistance) [3, 7] | Expression, oxyR (Oxidative stress) [3, 7] | Expression, phoP (Envelope stress) [3, 7] | Expression, phoQ (Envelope stress) [3, 7] | Expression, recA (SOS response) [3, 7] | Expression, rpoE (Envelope stress) [3, 7] | Expression, rpoS (Sigma S response) [3, 7] | Expression, umuC (SOS response) [3, 7] | other results |
| --- | --- | --- | --- | --- | --- | --- | --- | --- | --- | --- | --- | --- | --- | --- | --- | --- | --- | --- | --- | --- | --- |
| CC[C@H](C)[C@H](NC(=O)CN)C(=O)NCC(=O)N[C@@H](C)C(=O)N[C@H](C(=O)N[C@@H](CC(C)C)C(=O)N[C@@H](CCCCN)C(=O)N[C@H](C(=O)N[C@@H](CC(C)C)C(=O)N[C@H](C(=O)N[C@H](C(=O)NCC(=O)N[C@@H](CC(C)C)C(=O)N1CCC[C@H]1C(=O)N[C@@H](C)C(=O)N[C@@H](CC(C)C)C(=O)N[C@H](C(=O)N[C@@H](CO)C(=O)N[C@@H](Cc1c[nH]c2ccccc12)C(=O)N[C@H](C(=O)N[C@@H](CCCCN)C(=O)N[C@@H](CCCNC(=N)N)C(=O)N[C@@H](CCCCN)C(=O)N[C@@H](CCCNC(=N)N)C(=O)N[C@@H](CCC(N)=O)C(=O)N[C@@H](CCC(N)=O)C(N)=O)[C@@H](C)CC)[C@@H](C)CC)[C@@H](C)O)[C@@H](C)O)C(C)C)C(C)C [Melittin] | did not change | NDE | NDE | NDE | NDE | NDE | NDE | NDE | 1.295 | 0.953 | 0.991 | 1.1 | 0.743 | 1.337 | 0.857 | 0.87 | 1.12 | 1.197 | 0.972 | 0.926 | MIC50 [2]: 1.6 µg/mL; Result, phoQ [3, 6]: NDE; Result, recA [3, 6]: NDE; Result, rpoE [3, 6]: NDE; Result, rpoS [3, 6]: NDE; Result, umuC [3, 6]: NDE |
| CC1(C)S[C@@H]2[C@H](NC(=O)[C@H](N)c3ccccc3)C(=O)N2[C@H]1C(=O)O [Ampicillin] |  | NDE | NDE | NDE | NDE | UP (2.5-fold) | NDE | NDE | 1.083 | 0.988 | 1.623 | 1.563 | 2.498 | 0.923 | 1.026 | 0.96 | 1.627 | 0.815 | 1.31 | 1.373 | MIC ([4]; Escherichia coli, read-out: MIC): 4 µg/mL (≈ 11.4 µM); MIC50 ([2]; Escherichia coli, read-out: MIC50): 3.2 µg/mL; Result, phoQ [3, 6]: NDE; expression, lexA (microarray database) [5, 8]: 2.143; expression, marR (microarray database) [5, 8]: 4.064; expression, phoP (microarray database) [5, 8]: -2.302; expression, rpoS (microarray database) [5, 8]: -2.26; expression, rpoE (microarray database) ([5]; ampicillin 25 μg/ml, 30 min, ref Shaw,2003): -4.545 |
| GIGKFLKKAKKFGKAFVKILKK-NH2 (C-terminus assumed) [Pexiganan] | did not change |  |  |  |  |  |  |  | 0.893 | 0.846 | 1.114 | 1.049 | 4.048 | 1.187 | 3.074 | 2.447 | 0.733 | 1.108 | 1.353 | 0.925 | MIC [4]: 2 µg/mL; Result, cpxA [3]: NDE; Result, cpxR [3]: NDE; Result, dinB [3]: NDE; Result, lexA [3]: NDE; Result, marR [3]: UP (4.05-fold); Result, oxyR [3]: NDE; Result, phoP [3]: UP (3.07-fold); Result, phoQ [3]: UP (2.45-fold); Result, recA [3]: NDE; Result, rpoE [3]: NDE; Result, rpoS [3]: NDE; Result, umuC [3]: NDE; overexpression of three envelope stress genes (marR, phoP and phoQ) ([3]; qPCR, 20 minutes exposure): overexpression |
